Here are results for 37 compounds from patent US20240398757A1 (COCRYSTAL PHARMA, INC., priority 2022, published 2024).

The target in this assay is T1, SARS2 protease (Severe acute respiratory syndrome coronavirus 2, UniProt P0DTD1).
T1 construct: SARS2 protease was added to a final concentration of 30 nM
The experiment in a line: SARS-CoV-2 protease inhibition assay (SARS2 FRET protease assay). In kind it is biochemical. The conditions noted are these: IC50 (μM), SARS2 protease 30 nM, peptide substrate 1.3 μM, 120 minutes at 37° C., compounds 20 μM to 0.075 nM.
For `CC(C)C[C@H](NC(=O)O[C@@H](c1ccccc1)C(F)(F)c1cccc(F)c1)C(=O)N[C@H](C=O)C[C@@H]1CCNC1=O` [Compound A223, (S)-2,2-difluoro-2-(3-fluorophenyl)-1-phenylethyl ((S)-4-methyl-1-oxo-1-(((S)-1-oxo-3-((S)-2-oxopyrrolidin-3-yl)propan-2-yl)amino)pentan-2-yl)carbamate], the IC50 (commonly the point on the concentration scale where inhibition reaches its midpoint) turned out to be 0.007 µM. Regarding `CC(C)C[C@H](NC(=O)OC(C(C)C)C(F)(F)c1cccc(-c2ccccc2)c1)C(=O)N[C@H](C=O)C[C@@H]1CCNC1=O` (stereo partly drawn) [Compound A222, 1-([1,1′-Biphenyl]-3-yl)-1,1-difluoro-3-methylbutan-2-yl ((S)-4-methyl-1-oxo-1-(((S)-1-oxo-3-((S)-2-oxopyrrolidin-3-yl)propan-2-yl)amino)pentan-2-yl)carbamate], inhibition was half-maximal at 0.003 µM (IC50). The value for `CCCC[C@H](NC(=O)OC(c1ccc(F)cc1)C1(c2cccc(Cl)c2)CC1)C(=O)N[C@@H](C[C@@H]1CCNC1=O)C(=O)C(=O)NC1CC1` (stereo partly shown) [Compound A76] was 0.053 µM; that for `CCC(CC)(c1cccc(Cl)c1)C(OC(=O)N[C@@H](CC(C)C)C(=O)N[C@@H](C[C@@H]1CCNC1=O)C(=O)C(=O)NC1CC1)c1ccc(F)c(F)c1` (stereo partly shown) [Compound A22] was 0.32 µM.

Compound `O=C[C@H](C[C@@H]1CCNC1=O)NC(=O)[C@H](CCC(F)F)NC(=O)OC(c1ccccc1)C(F)(F)c1cccc(Cl)c1` (stereo partly drawn) [Compound A163, 2-(3-chlorophenyl)-2,2-difluoro-1-phenylethyl ((S)-5,5-difluoro-1-oxo-1-(((S)-1-oxo-3-((S)-2-oxopyrrolidin-3-yl)propan-2-yl)amino)pentan-2-yl)carbamate] gave a concentration for half-maximal inhibition (IC50) of 0.017 µM. Turning to `CCCC[C@H](NC(=O)OC(c1ccc(F)cc1)C1(c2cccc(F)c2)CC1)C(=O)N[C@@H](C[C@@H]1CCNC1=O)C(=O)C(=O)NC1CC1` (stereo partly shown) [Compound A71], the IC50 is 0.222 µM.

Turning to `CCCC[C@H](NC(=O)OC(c1ccc(F)cc1)C(F)(F)c1cccc(Cl)c1)C(=O)N[C@H](C=O)C[C@@H]1CCNC1=O` (stereo partly shown) [Compound A69], half-maximal inhibition (IC50) was put at 0.008 µM. In turn, `CCCC[C@H](NC(=O)O[C@@H](c1ccccc1)C(C)(C)c1cccc(F)c1)C(=O)N[C@@H](C[C@@H]1CCNC1=O)C(=O)C(=O)NCC` [Compound A215] displayed a half-inhibitory concentration (IC50) of 1.01 µM. Regarding `CCCC[C@H](NC(=O)OC(c1ccn(C)n1)C(F)(F)c1cccc(Cl)c1)C(=O)N[C@H](C=O)C[C@@H]1CCNC1=O` (stereo partly shown) [Compound A305], the IC50 stood at 0.0004 µM. Under `CC(C)C[C@H](NC(=O)OC(c1ccccc1)C(C)(C)c1cccc(F)c1)C(=O)NC(C)(C=O)C[C@@H]1CCNC1=O` (stereo partly shown) [Compound A39] stands 2.3 µM. In the case of `CC(C)C[C@H](NC(=O)O[C@@H](c1cccc(Cl)c1)C1(c2cccc(Cl)c2)CCCCC1)C(=O)N[C@H](C=O)C[C@@H]1CCNC1=O` [Compound A54], the IC50 was 0.14 µM.

Regarding `CC[C@@H](C)C[C@H](NC(=O)O[C@H](c1ccccc1)C(F)(F)c1cccc(Cl)c1)C(=O)N[C@@H](C[C@@H]1CCNC1=O)C(=O)C(=O)NC1CC1` [Compound A311], it took 0.181 µM to reach half-maximal inhibition (IC50). The value for `CCCC[C@H](NC(=O)OC(c1ccncc1)C(F)(F)c1cccc(Cl)c1)C(=O)N[C@@H](C[C@@H]1CCNC1=O)C(=O)C(=O)NC1CC1` (stereo partly drawn) [Compound A257, 2-(3-Chlorophenyl)-2,2-difluoro-1-(pyridin-4-yl)ethyl ((S)-1-(((S)-4-(cyclopropylamino)-3,4-dioxo-1-((S)-2-oxopyrrolidin-3-yl)butan-2-yl)amino)-1-oxohexan-2-yl)carbamate] was 0.0001 µM; that for `CC(C)C[C@H](NC(=O)OC(c1cccc(Cl)c1)C1(c2cccc(Cl)c2)CCC1)C(=O)N[C@@H](C[C@@H]1CCNC1=O)C(=O)C(=O)NC1CC1` (stereo partly shown) [Compound A16] was 0.38 µM. As to `CCCC[C@H](NC(=O)O[C@H](c1ccc(F)cc1)C(F)(F)c1cccc(Cl)c1)C(=O)N[C@H](C=O)C[C@@H]1CCNC1=O` [Compound A160], the IC50 is 0.47 µM.

`CCCC[C@H](NC(=O)OC(c1ccccc1)C(C)(C)c1cccc(F)c1)C(=O)N[C@H](C=O)C[C@@H]1CCNC1=O` (stereo partly shown) [Compound A37]: the 50% inhibitory concentration (IC50) is 0.91 µM. Under `CCCC[C@H](NC(=O)OC(c1ccccc1)C(F)(F)c1cccc(Cl)c1)C(=O)N[C@H](C=O)C[C@@H]1CCCNC1=O` (stereo partly shown) [Compound A114] stands 0.0003 µM; under `CCCC[C@H](NC(=O)OC(c1ccccc1)C(F)(F)c1cccc(Cl)c1)C(=O)N[C@@H](C[C@H]1CCNC1=O)C(=O)C(=O)NCC` (stereo partly shown) [Compound A185], 0.91 µM; under `O=C(N[C@@H](CC1CCCCC1)C(=O)N[C@@H](C[C@@H]1CCNC1=O)C(O)S(=O)(=O)O)OC(c1ccccc1)C(F)(F)c1cccc(Cl)c1` (stereo partly shown) [Compound A75], 0.009 µM. `CC(C)C[C@H](NC(=O)O[C@@H](c1ccc(F)cc1)C(C)(C)c1cccc(Cl)c1)C(=O)N[C@H](C=O)C[C@@H]1CCNC1=O` [Compound A202] showed a half-inhibitory concentration (IC50) of 0.021 µM. In the case of `CC(C)C[C@H](NC(=O)O[C@@H](c1cccc(Cl)c1)C(C)(C)c1cccc(Cl)c1)C(=O)N[C@@H](C[C@@H]1CCNC1=O)C(=O)C(=O)NC1CC1` [Compound A142], half-maximal inhibition (IC50) was put at 0.032 µM. `CC(C)C[C@H]1C(=O)N[C@H](C[C@@H]2CCNC2=O)[C@H](O)N1C(=O)OC(c1ccccc1)C1(c2cccc(Cl)c2)CCNCC1` (stereo partly shown) [Compound A59]: the IC50 stood at 16.1 µM.

`CCCC[C@H](NC(=O)OC(c1ccncc1)C(F)(F)c1cccc(Cl)c1)C(=O)N[C@H](C=O)C[C@@H]1CCNC1=O` (stereo partly drawn) [Compound A256, 2-(3-Chlorophenyl)-2,2-difluoro-1-(pyridin-4-yl)ethyl ((S)-1-oxo-1-(((S)-1-oxo-3-((S)-2-oxopyrrolidin-3-yl)propan-2-yl)amino)hexan-2-yl)carbamate] returned a concentration for half-maximal inhibition (IC50) of 0.001 µM. The value for `CC(C)C[C@H](NC(=O)O[C@@H](c1ccccc1)C(F)(F)c1cccc(C(C)C)c1)C(=O)N[C@H](C=O)C[C@@H]1CCNC1=O` [Compound A275, (S)-2,2-difluoro-2-(3-isopropylphenyl)-1-phenylethyl ((S)-4-methyl-1-oxo-1-(((S)-1-oxo-3-((S)-2-oxopyrrolidin-3-yl)propan-2-yl)amino)pentan-2-yl)carbamate] was 0.001 µM; that for `CC(C)C[C@H](NC(=O)OC(c1ccccc1)C(C)(C)c1cccc(Cl)c1)C(=O)N[C@@H](C[C@@H]1CCCNC1=O)C(=O)C(=O)NC1CC1` (stereo partly shown) [Compound A57] was 1.13 µM. For `CCCC[C@H](NC(=O)O[C@H](c1ccccc1)C(F)(F)c1cccc(Cl)c1)C(=O)N[C@H](C=O)C[C@@H]1CCCNC1=O` [Compound A146], it took 0.038 µM to reach half-maximal inhibition (IC50). Under `O=C[C@H](C[C@@H]1CCCNC1=O)NC(=O)[C@H](CC1CCCCC1)NC(=O)OC(c1ccccc1)C(F)(F)c1cccc(Cl)c1` (stereo partly shown) [Compound A124] stands 0.0001 µM; under `CCCC[C@H](NC(=O)OC(c1cccc(F)c1)C(F)(F)c1cccc(F)c1)C(=O)N[C@@H](C[C@@H]1CCNC1=O)C(=O)C(=O)NC1CC1` (stereo partly shown) [Compound A80], 0.14 µM. The value for `CCCC[C@H](NC(=O)O[C@@H](c1ccccc1)C(C)(C)c1cccc(Cl)c1)C(=O)N[C@H](C=O)C[C@@H]1CCNC1=O` [Compound A61] was less than 0.0001 µM. The value for `CCCC[C@H](NC(=O)OC(c1ccccc1)C(F)(F)c1cccc(F)c1)C(=O)N[C@@H](CC1CCNC1=O)C(=O)C(=O)NCC` (stereo in doubt) [Compound A173, 2,2-difluoro-2-(3-fluorophenyl)-1-phenylethyl ((S)-1-(((S)-4-(ethylamino)-3,4-dioxo-1-((S)-2-oxopyrrolidin-3-yl)butan-2-yl)amino)-1-oxohexan-2-yl)carbamate] was 0.0386 µM; that for `CCCC[C@H](NC(=O)O[C@@H](c1ccccc1)C(F)(F)c1cccc(Cl)c1)C(=O)N[C@H](C=O)C[C@@H]1CCNC1=O` [Compound A107, (S)-2-(3-chlorophenyl)-2,2-difluoro-1-phenylethyl ((S)-1-oxo-1-(((S)-1-oxo-3-((S)-2-oxopyrrolidin-3-yl)propan-2-yl)amino)hexan-2-yl)carbamate] was 0.001 µM; that for `CC(C)C[C@H](NC(=O)O[C@@H](C(C)C)C(F)(F)c1cccc(-c2ccccc2)c1)C(=O)N[C@@H](C[C@@H]1CCNC1=O)C(=O)C(=O)NC1CC1` [Compound A226, 1-([1,1′-biphenyl]-3-yl)-1,1-difluoro-3-methylbutan-2-yl ((S)-1-(((S)-4-(cyclopropylamino)-3,4-dioxo-1-((S)-2-oxopyrrolidin-3-yl)butan-2-yl)amino)-4-methyl-1-oxopentan-2-yl)carbamate] was 0.062 µM. As for `CCCC[C@H](NC(=O)O[C@@H](c1ccccc1)C(C)(C)c1cccc(Cl)c1)C(=O)N[C@H](C=O)C[C@H]1CCNC1=O` [Compound A122, (S)-2-(3-Chlorophenyl)-2-methyl-1-phenylpropyl ((S)-1-oxo-1-(((S)-1-oxo-3-((R)-2-oxopyrrolidin-3-yl)propan-2-yl)amino)hexan-2-yl)carbamate], the concentration for half-maximal inhibition (IC50) is less than 0.0001 µM.

For the compound `O=C(N[C@@H](CC1CCCCC1)C(=O)N[C@@H](C[C@@H]1CCNC1=O)C(O)S(=O)(=O)O)O[C@@H](c1ccccc1)C(F)(F)c1cccc(F)c1` (stereo partly shown) [Compound A133], the IC50 came to 0.002 µM. Under `O=C[C@H](C[C@@H]1CCNC1=O)NC(=O)[C@H](CC1CCCCC1)NC(=O)OC(c1ccccc1)C(F)(F)c1cccc(Cl)c1` (stereo partly shown) [Compound A20] stands 0.0003 µM. Under `CCNC(=O)C(=O)[C@H](C[C@@H]1CCNC1=O)NC(=O)[C@H](CC1CCC1)NC(=O)OC(c1ccccc1)C(F)(F)c1cccc(Cl)c1` (stereo partly shown) [Compound A132] stands 0.066 µM; under `CCCC[C@H](NC(=O)OC(c1ccccc1)C(F)(F)c1cccc(Cl)c1)C(=O)N[C@@H](C[C@@H]1CCNC1=O)C(=O)c1nc2ccccc2o1` (stereo partly drawn) [Compound A269, 2-(3-chlorophenyl)-2,2-difluoro-1-phenylethyl ((S)-1-(((S)-1-(benzo[d]oxazol-2-yl)-1-oxo-3-((S)-2-oxopyrrolidin-3-yl)propan-2-yl)amino)-1-oxohexan-2-yl)carbamate], 0.418 µM.
